Data: patent publication US6525063B2, “Antitumour 1,5-diazaanthraquinones” (Universidad Complutense de Madrid, priority 1998, dated 2003)

What was measured:
P388 (ATCC CCL-46) cells = assay: in vitro cytotoxic assay, P388 cells; assay type: cell-based; conditions: 72 h; P388 lymphoid neoplasm from DBA/2 mouse, suspension culture; three days of incubation; approximate IC50 by growth vs control
Procedure: (§1) Cells were maintained in logarithmic phase of growth in Eagle's Minimum Essential Medium, with Earle's Balanced Salts, with 2.0 mM L-glutamine, with non-essential amino acids, without sodium bicarbonate (EMEM/neaa); supplemented with 10% Fetal Calf Serum (FCS), 10^−2 M sodium bicarbonate and 0,1 g/l penicillin-G+streptomycin sulfate.
(§2) A screening procedure has been carried out to determine and compare the antitumour activity of these compounds, using an adapted form of the method described by Raymond J. Bergeron, Paul F. Cavanaugh Jr., Steven J. Kline, Robert G. Hughes, Jr., Gary T. Elliot and Carl W. Porter. Antineoplastic and antiherpetic activity of spermidine catecholamide iron chelators. Biochem. Bioph. Res. Comm. 1984, 121, 848-854. The antitumour cells employed were P388 (ATCC CCL-46) (suspension culture of a lymphoid neoplasm from DBA/2 mouse), A549 (ATCC CCL-185) (monolayer culture of a human lung carcinoma), HT-29 (ATCC HTB-38) (monolayer culture of a human colon carcinoma) and SK-MEL-28 (ATCC HTB-72) (monolayer culture of a human melanoma).
P388 (ATCC CCL-46) cells were seeded into 16 mm wells at 1×10^4 cells per well in 1 ml aliquots of MEM 5FCS containing the indicated concentration of drug. A separate set of cultures without drug was seeded as control growth to ensure that cells remained in exponential phase of growth. All determinations were carried out in duplicate.
(§3) The results of the in vitro cytotoxic assays for these compounds (4a), (4b), (4c), (4d), (11a), (12a), (13a), (13b), and (14a) with the cellular lines P388 (ATCC CCL-46), A549 (ATCC CCL-185), HT-29 (ATCC HTB-38) and SK-MEL-28 (ATCC HTB-72) are shown in the following Table.

[1] = test system: A549 (ATCC CCL-185) cells; assay: in vitro cytotoxic assay, A549 cells; assay type: cell-based; conditions: 72 h; A549 human lung carcinoma monolayer; three days of incubation; Crystal Violet staining; approximate IC50
Procedure: as §1, §2
(§4) A549 (ATCC CCL-185), HT-29 (ATCC HTB-38) and SK-MEL-28 (ATCC HTB-72) cells were seeded into 16 mm wells at 2×10^4 cells per well in 1 ml aliquots of MEM 10FCS containing the indicated concentration of drug. A separate set of cultures without drug was seeded as control growth to ensure that cells remained in exponential phase of growth. All determinations were carried out in duplicate. After three days of incubation at 37° C., 10% CO2 in a 98% humid atmosphere, the wells were stained with 0.1% Crystal Violet. An approximately IC50 was determined by comparing the growth in wells with drug to the growth in wells control.
as §3

[2] = test system: HT-29 (ATCC HTB-38) cells; assay: in vitro cytotoxic assay, HT-29 cells; assay type: cell-based; conditions: 72 h; HT-29 human colon carcinoma monolayer; three days of incubation; Crystal Violet staining; approximate IC50
Procedure: as §1, §2, §4, §3

[3] = test system: SK-MEL-28 (ATCC HTB-72) cells; assay: in vitro cytotoxic assay, SK-MEL-28 cells; assay type: cell-based; conditions: 72 h; SK-MEL-28 human melanoma monolayer; three days of incubation; Crystal Violet staining; approximate IC50
Procedure: as §1, §2, §4, §3

Row | melting point | Compound | IC50 (P388 (ATCC CCL-46) cells) | IC50 [1] | IC50 [2] | IC50 [3]
1 | 218 to 220 °C | CCc1cnc2c(c1)C(=O)c1ncc(CC)cc1C2=O [(4a), 3,7-Diethyl-1,5-diazaanthraquinone] | 450 nM | 50 nM | 190 nM | 50 nM
2 | > 300 °C | Cc1cnc2c(c1)C(=O)c1ncc(C)cc1C2=O [(4b), 3,7-Dimethyl-1,5-diazaanthraquinone] | 7350 nM | 50 nM | 510 nM | 110 nM
3 | 253 to 254 °C | Cc1ccnc2c1C(=O)c1nccc(C)c1C2=O [(4c), 4,8-Dimethyl-1,5-diazaanthraquinone] | 4200 nM | 500 nM | 1050 nM | 1050 nM
4 | 180 to 182 °C | CCc1c(C)cnc2c1C(=O)c1ncc(C)c(CC)c1C2=O [(4d), 4,8-Diethyl-3,7-dimethyl-1,5-diazaanthraquinone] | 3400 nM | 3400 nM | 3400 nM | 3400 nM
5 | 208 to 210 °C | Cc1cnc2c(c1)C(=O)c1nccc(Cl)c1C2=O [(11a), 8-Chloro-3-methyl-1,5-diazaanthraquinone] | 150 nM | 30 nM | 40 nM | 30 nM
6 |  | CC1C=CN(N(C)C)C2=C1C(=O)c1nccc(Cl)c1C2=O (stereo not shown) [(12a), 8-Chloro-1-dimethylamino-4-methyl-1,4-dihydro-1,5-diazaanthraquinone] | 3290 nM | 330 nM | 1650 nM | 330 nM
7 | > 300 °C | Cc1ccnc2c1C(=O)c1nccc(Cl)c1C2=O [(13a), 4-Chloro-8-methyl-1,5-diazaanthraquinone] | 3870 nM | 190 nM | 1930 nM | 190 nM
8 |  | O=C1c2nccc(-c3ccccc3[N+](=O)[O-])c2C(=O)c2nccc(Cl)c21 [(13b), 4-Chloro-8-(o-nitrophenyl)-1,5-diazaanthraquinone] | 270 nM | 30 nM | 270 nM | 70 nM
9 | 97 to 100 °C | Cc1ccnc2c1C(=O)c1nccc(N(C)C)c1C2=O [(14a), 4-Dimethylamino-8-methyl-1,5-diazaanthraquinone] | 9360 nM | 370 nM | 940 nM | 370 nM
